Columns and labels:
HT29 tumoroid cells = assay: Drug response of HT29 tumoroids on FiSS, CELLTITER-GLO viability, platform 10 (Chip) vs static system (Control); type: cell-based; details: 48 hours drug treatment, microfluidic platform 10 (Chip) compared with static system (Control), FIGS. 14A-14C
Method: (§1) FIG. 6 depicts the results of experiments performed on platform 10 described in detail above. In a first step, microfluidic channel layer 14 is cleaned and a scaffold to be grown on platform 10 is washed. Either 3000 cells of HT29, 2000 cells of HCT116, of 3500 cells of LLC are seeded in 100 μL of a culture media 30. After 48 hours, an additional 100 μl of the culture media 30 is added to inlet well 20, and an additional 50 μL of the culture media is added to culture well 21, with no fresh media added to outlet well 22. Approximately 48 hours after the additional media is added, a drug response test is performed. All the culture media 30 is removed from culture well 21, and 300 μL of a drug dissolved media is added to culture well 21 at the control plate. […]
(§2) A test, such as a CELLTITER-GLO® test, is performed 48 hours later to quantify the viable cells in the culture. […] Cell viability was determined using a CELLTITER-GLO® assay (Promega) according to the manufacturer's protocol. Luminescence was measured in a white well-plate in a Bio-Tek Synergy H4 plate reader (BioTek). An average luminescence value for each group was plotted as a percentage of the control group. […]

HCT116 tumoroid cells = assay: Drug response of HCT116 tumoroids on FiSS, CELLTITER-GLO viability, platform 10 (Chip) vs static system (Control); type: cell-based; details: 48 hours drug treatment, microfluidic platform 10 (Chip) compared with static system (Control), FIGS. 15A-15C
Method: as §1, §2

Row | Structure (SMILES) | drug dose required on platform 10 to have the same IC50 as the static systems (HT29 tumoroid cells) | drug dose required on platform 10 to have the same IC50 as the static systems (HCT116 tumoroid cells)
1 | O=c1[nH]cc(F)c(=O)[nH]1 [fluorouracil] | higher drug dose | lower drug dose
2 | O=C1[O][Pt]2([NH][C@@H]3CCCC[C@H]3[NH]2)[O]C1=O [oxaliplatin] | higher drug dose | higher drug dose
